Laboratory results: patent US10877026B2, “Blood brain barrier models and methods to generate and use the same” (Purdue Research Foundation, priority 2016, dated 2020)
Read-outs that look alike come from different tables or passages of the source.

Legend:
[1] = test system: human astrocyte monolayers; assay: Apparent permeability across human astrocyte monoculture; assay type: in vitro ADME
Description: (§1) For human astrocyte monocultures, 4×10^4 cells were seeded onto Transwells® coated with 2 μg/cm^2 poly-L-lysine and grown for 9 days prior to permeability studies.
(§2) . Before all permeability studies, cells were washed twice with PBS before equilibrating in HBSS for 20 minutes shortly before the study. After study initiation, 100 μL samples were taken at 15, 30, 45, 60, and 90 minute time points. 4 mL of scintillation cocktail was added for analysis by scintillation counting.

[2] = as above; assay type: in vitro ADME; settings: human; astrocytes grown in monoculture
Description: as §1, §2

[3] = in vitro; settings: human
Description: as §1
as §2, with “Before” for “. Before”

[4] = in vitro; settings: human; remark: listed apart in the source
[5] = test system: direct-contact triculture of astrocytes, pericytes and hCMEC/D3 cells
[6] = test system: direct contact coculture of human astrocytes and hCMEC/D3 cells; assay: Apparent permeability across direct contact coculture on Transwell; settings: for apparent permeability, reproducibility: different passage number
[7] = test system: hCMEC/D3 monoculture; assay: Apparent permeability across hCMEC/D3 monoculture on Transwell
Description: as §1
as §2, with “Before” for “. Before”

[8] = test system: direct-contact triculture of astrocytes, pericytes and hCMEC/D3 cells; assay: Permeability across direct-contact triculture BBB model; settings: hCMEC/D3 monoculture as control, n=5, FIG. 9
[9] = test system: direct contact coculture of human astrocytes and hCMEC/D3 cells
[10] = test system: direct contact coculture; assay: MTT cell viability assay; assay type: cell-based, human; settings: n=6
Description: Cell viability in the presence of various HEPES concentrations was inferred by the mitochondrial oxidation of 3-(4,5-dimethylthiazol-2-yl)-2,5-diphenyltetrazolium bromide (MTT) dye. The direct contact coculture was plated in a 96-well plate following the same methods as stated above. On Day 7 post hCMEC/D3 plating, media containing HEPES was removed and replaced with 190 μL, fresh media and 10 μL of 5 mg/mL MTT and incubated at 37° C. with 5% CO2 for 4 hours. MTT was then removed and replaced with 200 μL DMSO and left agitating at room temperature for 1 hour. Absorbance at 570 nm was determined using a plate reader. Cell viability was normalized to 10 mM HEPES control. Assays were performed with n=6.

[11] = test system: co-culture of astrocytes and pericytes; assay: Mannitol permeability across mono- or co-cultures of astrocytes and pericytes; assay type: in vitro ADME
[12] = molecular target: T1, Pgp (Homo sapiens, UniProt P08183); assay: Drug-interaction of elacridar and digoxin in BBB culture models; assay type: cell-based; settings: triculture versus hCMEC/D3 monoculture or astrocyte-pericyte co-culture, FIG. 17
T1 construct: endogenous in cells; host or cells: hCMEC/D3 monoculture, astrocyte-pericyte coculture and triculture
T1 sequence (P08183 whole entry): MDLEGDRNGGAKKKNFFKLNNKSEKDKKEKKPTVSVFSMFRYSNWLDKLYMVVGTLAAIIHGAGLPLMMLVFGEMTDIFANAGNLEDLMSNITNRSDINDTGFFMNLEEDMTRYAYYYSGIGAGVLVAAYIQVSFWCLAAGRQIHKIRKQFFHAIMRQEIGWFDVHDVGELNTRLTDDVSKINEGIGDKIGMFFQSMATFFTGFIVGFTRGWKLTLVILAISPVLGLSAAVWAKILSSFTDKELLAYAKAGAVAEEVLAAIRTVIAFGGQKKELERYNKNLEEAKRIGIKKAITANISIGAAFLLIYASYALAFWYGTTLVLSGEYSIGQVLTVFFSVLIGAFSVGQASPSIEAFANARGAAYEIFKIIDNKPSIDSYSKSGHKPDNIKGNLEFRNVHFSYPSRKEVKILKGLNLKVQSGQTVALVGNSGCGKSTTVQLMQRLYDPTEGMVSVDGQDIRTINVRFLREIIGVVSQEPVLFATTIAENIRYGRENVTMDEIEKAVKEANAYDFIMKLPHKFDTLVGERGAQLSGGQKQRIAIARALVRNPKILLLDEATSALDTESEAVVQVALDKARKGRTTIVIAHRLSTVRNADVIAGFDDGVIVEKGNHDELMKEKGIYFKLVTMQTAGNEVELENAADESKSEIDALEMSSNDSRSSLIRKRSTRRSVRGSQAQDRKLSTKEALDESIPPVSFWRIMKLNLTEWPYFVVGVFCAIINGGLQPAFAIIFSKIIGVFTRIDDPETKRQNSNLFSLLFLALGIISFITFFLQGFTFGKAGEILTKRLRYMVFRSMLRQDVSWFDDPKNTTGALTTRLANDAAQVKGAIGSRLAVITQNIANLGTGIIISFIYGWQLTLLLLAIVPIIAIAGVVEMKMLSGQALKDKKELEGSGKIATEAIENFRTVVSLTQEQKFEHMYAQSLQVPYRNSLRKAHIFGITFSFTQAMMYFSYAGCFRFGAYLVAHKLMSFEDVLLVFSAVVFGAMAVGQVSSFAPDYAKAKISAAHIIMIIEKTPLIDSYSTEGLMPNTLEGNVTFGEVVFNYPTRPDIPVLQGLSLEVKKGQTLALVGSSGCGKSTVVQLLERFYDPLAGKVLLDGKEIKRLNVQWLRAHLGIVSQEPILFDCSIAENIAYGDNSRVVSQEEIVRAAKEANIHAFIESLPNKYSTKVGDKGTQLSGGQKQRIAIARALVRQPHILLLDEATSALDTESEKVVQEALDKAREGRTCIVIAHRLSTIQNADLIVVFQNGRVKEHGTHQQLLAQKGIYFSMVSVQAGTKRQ

**Q.** Which results are given for `CC(C)NCC(O)COc1cccc2ccccc12` (stereo not drawn) [Propranolol]?
**A.** fold lower permeability in hCMEC/D3 and direct contact coculture than in astrocyte monoculture [1]: ~3 fold; Papp A→B at 90 min, 0.25 μCi/mL [2]: 45.8 ± 4.1 ×10⁻⁶ cm/s; Papp A→B at 90 min, 0.25 μCi/mL [3]: 19.1 ± 1.9 ×10⁻⁶ cm/s; Papp A→B at 90 min, 0.25 μCi/mL ([4]; apparent permeability): 16.1 ± 0.4 ×10⁻⁶ cm/s; transcellular permeability across the BBB-triculture relative to L-histidine [5]: significantly slower than L-histidine

**Q.** For `CC(=O)O[C@H]1C(=O)[C@@]2(C)[C@H]([C@H](OC(=O)c3ccccc3)[C@]3(O)C[C@H](OC(=O)[C@H](O)[C@@H](NC(=O)c4ccccc4)c4ccccc4)C(C)=C1C3(C)C)[C@]1(OC(C)=O)CO[C@@H]1C[C@@H]2O` [paclitaxel], which “transcellular permeability across the BBB-triculture relative to L-histidine” value [5] is on record?
**A.** The value was “significantly slower than L-histidine”.

**Q.** With Inulin as the compound, how does the Papp ([6]; Table 4, values match the direct contact coculture) read?
**A.** Its Papp is 0.754 ± 0.030 ×10^−5 cm/s.

**Q.** What about the apparent permeability ([6]; direct contact coculture, n=3) of the same compound?
**A.** The apparent permeability was 7.55±0.3 ×10^−6 cm/s.

**Q.** What about the “apparent permeability, reproducibility” value ([6]; first additional independent experiment) of the same compound?
**A.** Its value is 7.51±0.01 ×10^−6 cm/s.

**Q.** And the “apparent permeability, reproducibility” value ([6]; second additional independent experiment)?
**A.** The value was 7.94±0.03 ×10^−6 cm/s.

**Q.** What about the apparent permeability ([7]; hCMEC/D3 monoculture, n=3) of the same compound?
**A.** Its apparent permeability is 8.46±0.02 ×10^−6 cm/s.

**Q.** And the “decrease in permeability, mono- versus tri-culture” value [8]?
**A.** The value was 8 fold.

**Q.** With `Cc1ncc(C[n+]2csc(CCO)c2C)c(N)n1` [Thiamine] as the compound, how does the “transcellular permeability across the BBB-triculture relative to L-histidine” value [5] read?
**A.** The value was “significantly slower than L-histidine”.

**Q.** For `NC(N)=O` [Urea], which apparent permeability [7] is on record?
**A.** Its apparent permeability is 2.96±0.11 ×10^−5 cm/s.

**Q.** What about the Papp [9] of the same compound?
**A.** Its Papp is 2.43 ± 0.155 ×10^−5 cm/s.

**Q.** And the apparent permeability [9]?
**A.** Its apparent permeability is 2.43±0.15 ×10^−5 cm/s.

**Q.** For `O=S(=O)(O)CCN1CCN(CCO)CC1` [HEPES, 4-(2-hydroxyethyl)-1-piperazineethanesulfonic acid], which “change in cell viability (MTT)” value ([10]; 25 mM HEPES in comparison to 10 mM HEPES control) is on record?
**A.** The value was −8.2±2.0%.

**Q.** And the “change in cell viability (MTT)” value ([10]; 50 mM HEPES compared to 10 mM HEPES control)?
**A.** Its value is −28.4±2.6%.

**Q.** Which Papp A→B at 90 min, 0.25 μCi/mL ([4]; Papp) does the source give for `OC[C@@H](O)[C@@H](O)[C@H](O)[C@H](O)CO` [Mannitol] here?
**A.** Its Papp A→B at 90 min, 0.25 μCi/mL is 15.2 ± 0.69 ×10⁻⁶ cm/s.

**Q.** And the Papp A→B at 90 min, 0.25 μCi/mL ([4]; apparent permeability)?
**A.** The Papp A→B at 90 min, 0.25 μCi/mL was 15.2 ± 0.7 ×10⁻⁶ cm/s.

**Q.** And the “decrease in permeability, mono- versus tri-culture” value ([5]; human, 90 min, 0.25 μCi/mL)?
**A.** Its value is 1.5 fold.

**Q.** What about the effective permeability ([11]; co-culture of astrocytes and pericytes versus astrocytes monoculture, FIG. 8B, n=6) of the same compound?
**A.** The effective permeability was “lower in comparison to monoculture of astrocytes”.

**Q.** What about the apparent permeability ([11]; co-culture versus astrocytes or pericytes alone, FIG. 8A) of the same compound?
**A.** Its apparent permeability is “lower in the co-culture of astrocytes and pericytes”.

**Q.** For `COc1cc2c(cc1OC)CN(CCc1ccc(NC(=O)c3cccc4c(=O)c5cccc(OC)c5[nH]c34)cc1)CC2` [elacridar], which “inhibition of Pgp function (digoxin)” value [12] is on record?
**A.** The value was “more difficult to inhibit Pgp function in the triculture”.
